Test results taken from ChEMBL document CHEMBL5357002, “Heterodimers of Aromadendrane Sesquiterpenoid with Benzoquinone from the Chinese Liverwort Mylia nuda” (J Nat Prod, 2024).
Active and inactive are the calls of the source. No cut-off for these calls is given here.

Legend:
SH-SY5Y [1] = experiment: Cytoprotective activity against glutamic acid induced injury in human SH-SY5Y cells assessed as increase in cell viability at 10 to 20 uM by MTT assay; type: functional, cell-based; conditions: dose 10-20 µM
SH-SY5Y [2] = experiment: Induction of apoptosis in glutamic acid induced human SH-SY5Y cells assessed as late apoptotic cells incubated for 24 hrs by Annexin V-FITC/PI staining based flow cytometry analysis (reference value: 0.21%); type: functional
SH-SY5Y [3] = experiment: Cytoprotective activity against glutamic acid induced injury in human SH-SY5Y cells assessed as improvement in cell morphology at 10 uM by immunofluorescence analysis; type: functional, cell-based
SH-SY5Y [4] = experiment: Induction of apoptosis in human SH-SY5Y cells assessed as late apoptotic cells incubated for 24 hrs by Annexin V-FITC/PI staining based flow cytometry analysis (reference value: 0.04%); type: toxicity, cell-based
SH-SY5Y [5] = experiment: Cytoprotective activity against glutamic acid induced injury in human SH-SY5Y cells assessed as decrease in ROS level at 10 uM by DCFH-DA staining based flow cytometry; type: functional, cell-based
SH-SY5Y [6] = experiment: Induction of apoptosis in human SH-SY5Y cells assessed as necrotic cells incubated for 24 hrs by Annexin V-FITC/PI staining based flow cytometry analysis (reference value: 0.06%); type: toxicity, cell-based
SH-SY5Y [7] = experiment: Induction of apoptosis in glutamic acid induced human SH-SY5Y cells assessed as necrotic cells incubated for 24 hrs by Annexin V-FITC/PI staining based flow cytometry analysis (reference value: 3.64%); type: functional
SH-SY5Y [8] = experiment: Induction of apoptosis in glutamic acid induced human SH-SY5Y cells assessed as viable cells incubated for 24 hrs by Annexin V-FITC/PI staining based flow cytometry analysis (reference value: 61.55%); type: functional
SH-SY5Y [9] = experiment: Induction of apoptosis in glutamic acid induced human SH-SY5Y cells assessed as early apoptotic cells incubated for 24 hrs by Annexin V-FITC/PI staining based flow cytometry analysis (reference value: 34.60%); type: functional
SH-SY5Y [10] = experiment: Induction of apoptosis in human SH-SY5Y cells assessed as early apoptotic cells incubated for 24 hrs by Annexin V-FITC/PI staining based based flow cytometry analysis (reference value: 0.03%); type: toxicity, cell-based
[11] = Induction of apoptosis in human SH-SY5Y cells assessed as viable cells incubated for 24 hrs by Annexin V-FITC/PI staining based flow cytometry analysis (reference value: 99.87%); type: toxicity, cell-based; conditions: read-out: Activity

COc1ccc(OC2=C(C)C(=O)[C@@H]3[C@H](C2=O)[C@H]2C[C@@H]3C([C@@H]3[C@H](CCC(C)=O)C3(C)C)=C2C)cc1C
Activity (SH-SY5Y [1]): Active

COc1ccc(OC2=C(C)C(=O)[C@H]3[C@@H](C2=O)[C@@H]2C[C@H]3C([C@@H]3[C@H](CCC(C)=O)C3(C)C)=C2C)cc1C
Activity (SH-SY5Y [1]): Active

COc1ccc(OC2=C(C)C(=O)[C@H]3[C@@H](C2=O)[C@@H]2C[C@@]3(C)C([C@@H]3[C@H](CCC(C)=O)C3(C)C)=C2C)cc1C
Activity (SH-SY5Y [1]): Active

COc1ccc(OC2=C[C@@H]3C(=O)[C@](C)(C2=O)[C@@]2(C)C([C@@H]4[C@H](CCC(C)=O)C4(C)C)=CC[C@@H]32)cc1C
Activity (SH-SY5Y [1]): Active

COc1ccc(OC2=C(C)C(=O)[C@H]3[C@@H](C2=O)[C@@H]2C[C@H]3C(C)=C2[C@@H]2[C@H](CCC(C)=O)C2(C)C)cc1C
Activity (SH-SY5Y [1]): Active

COc1ccc(OC2=C(C)C(=O)[C@@H]3[C@H](C2=O)[C@H]2C[C@@H]3C(C)=C2[C@@H]2[C@H](CCC(C)=O)C2(C)C)cc1C
Activity (SH-SY5Y [2]): 0.17% | Activity (SH-SY5Y [3]): Active | Activity (SH-SY5Y [4]): 0.08% | Activity (SH-SY5Y [5]): Active | Activity (SH-SY5Y [6]): 3.59% | Activity (SH-SY5Y [1]): Active | Activity (SH-SY5Y [7]): 4.49% | Activity (SH-SY5Y [8]): 81.11% | Activity (SH-SY5Y [9]): 14.23% | Activity (SH-SY5Y [10]): 0.39% | viability at 24 h [11]: 96%
